# ChEMBL document CHEMBL5120842, “Application of partially aromatic ortho-quionone-methides for the synthesis of novel naphthoxazines with improved antibacterial activity” (2022)
# Key:
# Assay type in all cases: functional
# [1] = test system: Staphylococcus aureus; experiment: (§1) Antibacterial activity against Gram-positive methicillin-susceptible Staphylococcus aureus ATCC 25923 assessed as inhibition of efflux pump by measuring intracellular accumulation of ethidium bromide at 100 uM and measured every minute for 1 hr by fluorescence based microtiter plate reader analysis
# [2] = test system: Staphylococcus aureus; experiment: Antibacterial activity against Gram-positive methicillin and oxacillin-resistant Staphylococcus aureus ATCC 43300 assessed as inhibition of bacterial growth by CLSI protocol based assay
# [3] = test system: Staphylococcus aureus; experiment: Inhibition of efflux pump in Gram-positive methicillin and oxacillin-resistant Staphylococcus aureus ATCC 43300 assessed as relative fluorescence index using ethidium bromide as substrate at 50 uM and measured after 1 hr by fluorescence based microtiter plate reader analysis
# [4] = test system: Staphylococcus aureus; experiment: as §1, with “methicillin and oxacillin-resistant” for “methicillin-susceptible”, “43300” for “25923”
# [5] = test system: Staphylococcus aureus; experiment: Inhibition of efflux pump in Gram-positive methicillin-susceptible Staphylococcus aureus ATCC 25923 assessed as relative fluorescence index using ethidium bromide as substrate at 50 uM and measured after 1 hr by fluorescence based microtiter plate reader analysis
# [6] = test system: Escherichia coli; experiment: Inhibition of efflux pump in Gram-negative Escherichia coli K-12 AG100 expressing AcrAB-TolC efflux pump assessed as relative fluorescence index using ethidium bromide as substrate at 50 uM and measured after 1 hr by fluorescence based microtiter plate reader analysis
# [7] = test system: Staphylococcus aureus; experiment: as §1, with “methicillin and oxacillin-resistant” for “methicillin-susceptible”, “43300” for “25923”, “50” for “100”
# [8] = test system: Staphylococcus aureus; experiment: Inhibition of efflux pump in Gram-positive methicillin-susceptible Staphylococcus aureus ATCC 25923 assessed as relative fluorescence index using ethidium bromide as substrate at 100 uM and measured after 1 hr by fluorescence based microtiter plate reader analysis
# [9] = test system: Staphylococcus aureus; experiment: Inhibition of efflux pump in Gram-positive methicillin and oxacillin-resistant Staphylococcus aureus ATCC 43300 assessed as relative fluorescence index using ethidium bromide as substrate at 100 uM and measured after 1 hr by fluorescence based microtiter plate reader analysis
# [10] = test system: Staphylococcus aureus; experiment: Antibacterial activity against Gram-positive methicillin-susceptible Staphylococcus aureus ATCC 25923 assessed as inhibition of bacterial growth by CLSI protocol based assay
# [11] = test system: Escherichia coli; experiment: as §1, with “Gram-negative Escherichia coli K-12 AG100 expressing AcrAB-TolC efflux pump” for “Gram-positive methicillin-susceptible Staphylococcus aureus ATCC 25923”
# [12] = test system: Escherichia coli; experiment: Antibacterial activity against Gram-negative Escherichia coli K-12 AG100 expressing AcrAB-TolC efflux pump assessed as inhibition of bacterial growth by CLSI protocol based assay
# [13] = test system: Staphylococcus aureus; experiment: (§2) Antibacterial activity against Gram-positive methicillin-susceptible Staphylococcus aureus ATCC 25923 assessed as inhibition of efflux pump by measuring intracellular accumulation of ethidium bromide at 50 uM and measured every minute for 1 hr by fluorescence based microtiter plate reader analysis
# [14] = test system: Escherichia coli; experiment: Inhibition of efflux pump in Gram-negative Escherichia coli K-12 AG100 expressing AcrAB-TolC efflux pump assessed as relative fluorescence index using ethidium bromide as substrate at 100 uM and measured after 1 hr by fluorescence based microtiter plate reader analysis
# [15] = test system: Escherichia coli; experiment: as §2, with “Gram-negative Escherichia coli K-12 AG100 expressing AcrAB-TolC efflux pump” for “Gram-positive methicillin-susceptible Staphylococcus aureus ATCC 25923”
# [16] = test system: Staphylococcus aureus; experiment: Inhibition of efflux pump in Gram-positive methicillin-susceptible Staphylococcus aureus ATCC 25923 assessed as relative fluorescence index using ethidium bromide as substrate at 3.125 uM and measured after 1 hr by fluorescence based microtiter plate reader analysis
# [17] = test system: Staphylococcus aureus; experiment: as §1, with “3.125” for “100”
# [18] = test system: Staphylococcus aureus; experiment: (§3) Antibacterial activity against Gram-positive methicillin-susceptible Staphylococcus aureus ATCC 25923 assessed as inhibition of efflux pump by measuring intracellular accumulation of ethidium bromide at 25 uM and measured every minute for 1 hr by fluorescence based microtiter plate reader analysis
# [19] = test system: Staphylococcus aureus; experiment: Inhibition of efflux pump in Gram-positive methicillin and oxacillin-resistant Staphylococcus aureus ATCC 43300 assessed as relative fluorescence index using ethidium bromide as substrate at 25 uM and measured after 1 hr by fluorescence based microtiter plate reader analysis
# [20] = test system: Staphylococcus aureus; experiment: as §3, with “methicillin and oxacillin-resistant” for “methicillin-susceptible”, “43300” for “25923”
# [21] = test system: Staphylococcus aureus; experiment: Inhibition of efflux pump in Gram-positive methicillin-susceptible Staphylococcus aureus ATCC 25923 assessed as relative fluorescence index using ethidium bromide as substrate at 25 uM and measured after 1 hr by fluorescence based microtiter plate reader analysis
SMILES,Activity [1],MIC [2] [µM],Activity [3],Activity [4],Activity [5],Activity [6],Activity [7],Activity [8],Activity [9],MIC [10] [µM],Activity [11],MIC [12] [µM],Activity [13],Activity [14],Activity [15],further results
CCOC(=O)C(c1ccc2ccccc2c1O)N1CCOCC1 (centres undefined),7624.33,> 100,-0.28,18886,-0.58,-0.78,56126.33,-0.72,-0.76,> 100,6561.67,> 100,11677.33,-0.81,7485.67,
CCOC(=O)C(c1c(O)ccc2ccccc12)N1CCOCC1 (centres undefined),51721,> 100,0.12,84280,1.1,0.29,87762.67,0.87,0.08,> 100,36685.33,> 100,58168.67,0.07,44310,
CCOC(=O)[C@H]1c2c(ccc3ccccc23)O[C@@H]2c3ccsc3CCN21 (relative stereo),33816.67,> 100,0.13,88655.67,0.06,0,88184.67,0.22,0.14,> 100,34921.33,> 100,29306,0.02,34078.33,
CCOC(=O)[C@H]1c2c(ccc3ccccc23)O[C@@H]2c3ccccc3CCN21 (relative stereo),31231.67,> 100,0.19,93822.67,0.15,0.05,92734,0.13,0.2,> 100,36732,> 100,31759,0.07,35837.67,
CCOC(=O)[C@H]1c2c(ccc3ccccc23)O[C@@H]2c3[nH]c4ccccc4c3CCN21 (relative stereo),29131.67,> 100,-0.03,78009,0.01,0.01,76072,0.05,0,> 100,36337.67,> 100,27892.33,0.06,34706,
CCOC(=O)[C@H]1c2ccc3ccccc3c2O[C@@H]2c3[nH]c4ccccc4c3CCN21 (relative stereo),,> 100,0.09,90479.33,,-0.02,84683,,0.16,6.25,32220.33,> 100,,-0.06,33567.67,Activity [16]: 0.26; Activity [17]: 34824.33
CCOC(=O)[C@H]1c2ccc3ccccc3c2O[C@@H]2c3ccsc3CCN21 (relative stereo),77859.67,> 100,0.3,103410,0.33,0.01,101450.33,1.82,0.33,> 100,35945.67,> 100,36826.67,0.05,34561.67,
CCOC(=O)[C@H]1c2ccc3ccccc3c2O[C@@H]2c3ccccc3CCN21 (relative stereo),42864,> 100,0.43,114226,0.61,0.09,111300.67,0.55,0.46,> 100,36999.33,> 100,44414.33,0.08,37156.33,
N#CC(C#N)=NNc1cccc(Cl)c1 [CARBONYL CYANIDE M-CHLOROPHENYLHYDRAZONE],,,,,,1.12,,,,,,,,,72448.33,
COC(=O)[C@H]1[C@H]2C[C@@H]3c4[nH]c5cc(OC)ccc5c4CCN3C[C@H]2C[C@@H](OC(=O)c2cc(OC)c(OC)c(OC)c2)[C@@H]1OC [RESERPINE],,,,,,,,,,,,,,,,Activity [18]: 54056; Activity [19]: 0.3; Activity [20]: 101532.7; Activity [21]: 0.96
